From the NIST ThermoML archive (doi:10.1021/acs.jced.9b00348)
Numbers after ± are expanded uncertainties.

Experiment: molar heat capacity at constant pressure
Conditions: 100 kPa, DSC

## [F][Th]([F])([F])[F] [thorium tetraluoride]
1278 K, Crystal
  molar heat capacity at constant pressure: 145 ± 21 J/K/mol
1478 K, Liquid
  molar heat capacity at constant pressure: 168 ± 21 J/K/mol
